Test results from PubChem BioAssay AID1963446 (Molecular Pharmacology Branch, DTP, NCI, 2024).
pIC50: −log10 of the molar value.

Test system: 993429-296-R-J1-PDC complex spheroid growth, percent test/control
Test: Anticancer human tumor 993429-296-R-J1-PDC patient-derived uterine sarcoma cell line growth inhibition [Asc]
Conditions: for pIC50: curve of first compound; for viability, T/C: stronger effect = lower value
Description: Multicellular complex tumor spheroid response to apoptosis pathway targeting inhibitors Alrizomadlin, Pelcitoclax, and Dasminapant in combination with a variety of drugs and investigational agents in selected tumor cell lines
The MDM2 inhibitor alrizomadlin, the Bcl-2/Bcl-xL inhibitor pelcitoclax, and the IAPs inhibitor dasminapant were evaluated both individually and in combination with standard of care and investigational anticancer small molecules within a complex spheroid model of solid tumors. . Complex spheroids include a stromal component modeled by human endothelial cells (HUVEC) and fibroblasts modeled by human mesenchymal stem cells (MSCs). The concentration ranges selected for each drug and investigational agent were based upon clinically achievable concentrations if the clinical Cmax of the agent was known.
Compounds. The drugs and investigational agents: alrizomadlin (APG-115; NSC831270), pelcitoclax (APG-1252; NSC835773), dasminapant (APG-1387;NSC834197), TAK-243 (NSC785004), copanlisib (NSC809693), olaparib (NSC753686), talazoparib (NSC767125), cobimetinib (NSC 768068), eltanexor (KPT-8602, NSC 794443), abemaciclib (NSC 768073), sotorasib (NSC818433), adagrasib (NSC 831453), MRTX-1133 (NSC 836407), Iadademestat (ORY1001, NSC 806812), and RMC-4630 (NSC839698), were obtained from the NCI Developmental Therapeutics Program Chemical Repository. The FDA-approved anticancer drug set is available from the Developmental Therapeutics Program at https://dtp.cancer.gov/organization/dscb/obtaining/available plates.htm. […] The stock solutions were prepared in dimethyl sulfoxide (DMSO, Sigma-Aldrich, St. Louis, MO, cat. D2650) at 800-fold the tested concentration and stored at -70 degrees C prior to their use. All drugs and investigational agents were tested over a range starting from a high concentration at or near the clinical Cmax and decreasing in half-log increments. If the clinical Cmax for an agent had not been determined, the highest concentration tested was 10 microM.
The patient-derived cancer (PDC) cell lines include five colon adenocarcinomas: 186277-243-T-J2-PDC, 616215-338-R-J1-PDC, 439559-082-T-J2-PDC, 463943-066-T-J2-PDC, and 519858-162-T-J1-PDC; three pancreatic carcinomas: 323965-272-R-J2-PDC, 521955-158-R6-J3-PDC, and 521955-158-R2-J5-PDC; two uterine sarcomas: 327498-152-R-J2-PDC and 993429-296-R-J1-PDC; two rhabdomyosarcomas: 755483-174-R-J1-PDC and 772245-204-R-J1-PDC; two soft tissue sarcomas: 126254-015-R-J1-PDC and 494315-158-R-J1-PDC; two malignant fibrous histiocytomas: 317291-083-R-J1-PDC and 596521-263-R-J1-PDC; two breast carcinomas: 171881-019-R-J1-PDC and 885512-296-R-J2-PDC; and one ovarian carcinoma: 6556581-035-R-J-PDC were obtained from the NCI PDMR, (https://pdmr.cancer.gov). The established cell lines HSSY-2 synovial sarcoma (RRID:CVCL 8719), SYO-1 synovial sarcoma (RRID:CVCL_7146), MPNST malignant peripheral neural sheath tumor were obtained from the Sloan Kettering Institute. The following established cell lines were purchased from the American Type Culture Collection (ATCC, Manassas, VA), Sor the received from the NCI repository:, PANC-1 pancreatic carcinoma (CRL-1469, RRID:CVCL_0480), OVCAR-5 ovarian carcinoma (RRID:CVCL_1628), OVCAR-8 ovarian carcinoma (RRID:CVCL_1629), , MCF-7 breast carcinoma (CRL-12584, RRID:CVCL_0031), MDA-MB-231 breast carcinoma (CRL-12532, RRID:CVCL_0062), NCI-H1876 small cell lung carcinoma (CRL-5902, RRID:CVCL_1503), NCI-H510A small cell lung carcinoma (HTB-184, RRID:CVCL_1565), NCI-H1417 (CRL-5869, RRID:CVCL_1469), and NCI-H196 small cell lung carcinoma (CRL-5823, RRID:CVCL_1509). Dr. Peter Houghton (Greehey Children's Cancer Research Institute, University of Texas Health Science Center, San Antonio, TX) provided Rh-18 rhabdomyosarcoma (RRID:CVCL_1659). Pooled donor human umbilical vein endothelial cells (HUVEC, Lonza, cat. CC-2519) and human mesenchymal stem cells (hMSC, Lonza, cat. PT-2501) were purchased from Lonza (Walkersville, MD).
Cell Culture. […]

[1] = second compound 0.03 µM, first compound 0.00316 µM
[2] = second compound 0.03 µM, first compound 0.01 µM
[3] = second compound 0.03 µM, first compound 0.0316 µM
[4] = second compound 0.03 µM, first compound 0.1 µM
[5] = second compound 0.03 µM, first compound 0.316 µM
[6] = second compound 0.03 µM, first compound 1 µM
[7] = second compound 0.0949 µM, first compound 0.00316 µM
[8] = second compound 0.0949 µM, first compound 0.01 µM
[9] = second compound 0.0949 µM, first compound 0.0316 µM
[10] = second compound 0.0949 µM, first compound 0.1 µM
[11] = second compound 0.0949 µM, first compound 0.316 µM
[12] = second compound 0.0949 µM, first compound 1 µM
[13] = second compound 0.3 µM, first compound 0.00316 µM
[14] = second compound 0.3 µM, first compound 0.01 µM
[15] = second compound 0.3 µM, first compound 0.0316 µM
[16] = second compound 0.3 µM, first compound 0.1 µM
[17] = second compound 0.3 µM, first compound 0.316 µM
[18] = second compound 0.3 µM, first compound 1 µM
[19] = second compound 0.949 µM, first compound 0.00316 µM
[20] = second compound 0.949 µM, first compound 0.01 µM
[21] = second compound 0.949 µM, first compound 0.0316 µM
[22] = second compound 0.949 µM, first compound 0.1 µM
[23] = second compound 0.949 µM, first compound 0.316 µM
[24] = second compound 0.949 µM, first compound 1 µM
[25] = second compound 3 µM, first compound 0.00316 µM
[26] = second compound 3 µM, first compound 0.01 µM
[27] = second compound 3 µM, first compound 0.0316 µM
[28] = second compound 3 µM, first compound 0.1 µM
[29] = second compound 3 µM, first compound 0.316 µM
[30] = second compound 3 µM, first compound 1 µM
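Further: spheroids exposed to compounds for seven days.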

CCN1CCN(Cc2ccc(Nc3ncc(F)c(-c4cc(F)c5nc(C)n(C(C)C)c5c4)n3)nc2)CC1 + CCN1C(C(=O)NC23CCC(C(=O)O)(CC2)CC3)C(c2cccc(Cl)c2F)C2(C(=O)Nc3cc(Cl)ccc32)C12CCCCC2
pIC50 (second compound 0.03 µM): < 6.00 | pIC50 (second compound 0.0949 µM): < 6.00 | pIC50 (second compound 0.3 µM): < 6.00 | pIC50 (second compound 0.949 µM): < 6.00 | pIC50 (second compound 3 µM): < 6.00 | viability, T/C [1]: 101% | viability, T/C [2]: 98.5% | viability, T/C [3]: 102% | viability, T/C [4]: 110% | viability, T/C [5]: 103% | viability, T/C [6]: 125% | viability, T/C [7]: 99.8% | viability, T/C [8]: 107% | viability, T/C [9]: 97.3% | viability, T/C [10]: 95.5% | viability, T/C [11]: 110% | viability, T/C [12]: 98.3% | viability, T/C [13]: 102% | viability, T/C [14]: 105% | viability, T/C [15]: 89.5% | viability, T/C [16]: 109% | viability, T/C [17]: 120% | viability, T/C [18]: 104% | viability, T/C [19]: 103% | viability, T/C [20]: 99.5% | viability, T/C [21]: 106% | viability, T/C [22]: 99.9% | viability, T/C [23]: 107% | viability, T/C [24]: 131% | viability, T/C [25]: 97.2% | viability, T/C [26]: 92.9% | viability, T/C [27]: 99.7% | viability, T/C [28]: 77.8% | viability, T/C [29]: 84.5% | viability, T/C [30]: 115%

O=C(c1ccc(F)c(F)c1Nc1ccc(I)cc1F)N1CC(O)([C@@H]2CCCCN2)C1 + CCN1C(C(=O)NC23CCC(C(=O)O)(CC2)CC3)C(c2cccc(Cl)c2F)C2(C(=O)Nc3cc(Cl)ccc32)C12CCCCC2
pIC50 (second compound 0.03 µM): 7.37 | pIC50 (second compound 0.0949 µM): 7.19 | pIC50 (second compound 0.3 µM): 7.37 | pIC50 (second compound 0.949 µM): 7.30 | pIC50 (second compound 3 µM): 7.71 | viability, T/C [1]: 98% | viability, T/C [2]: 72.2% | viability, T/C [3]: 58% | viability, T/C [4]: 38.7% | viability, T/C [5]: 8.47% | viability, T/C [6]: 1.77% | viability, T/C [7]: 80.2% | viability, T/C [8]: 87.7% | viability, T/C [9]: 66% | viability, T/C [10]: 39.8% | viability, T/C [11]: 8.87% | viability, T/C [12]: 1.19% | viability, T/C [13]: 85.8% | viability, T/C [14]: 74.7% | viability, T/C [15]: 61.1% | viability, T/C [16]: 22.3% | viability, T/C [17]: 8.15% | viability, T/C [18]: 2.9% | viability, T/C [19]: 86.8% | viability, T/C [20]: 67.3% | viability, T/C [21]: 66.3% | viability, T/C [22]: 30.9% | viability, T/C [23]: 8.19% | viability, T/C [24]: 2.6% | viability, T/C [25]: 74.9% | viability, T/C [26]: 64.4% | viability, T/C [27]: 38.3% | viability, T/C [28]: 20.6% | viability, T/C [29]: 5.52% | viability, T/C [30]: 0.67%
